Experimental findings from US9637501B2, “Pyridin-3-yl acetic acid macrocycles as inhibitors of human immunodeficiency virus replication” (priority 2014, dated 2017) are described below.

Where two headings read alike, the source gives them in different places.

The conditions of series [1]: rcm bond, Hoveyda-Grubbs catalyst 2nd generation, 1,2-dichloroethane, 3 steps.
In series [2] the test system is recombinant NL-RLuc virus (NL4-3 with Renilla Luciferase gene) in MT-2 cells. Put plainly: Inhibition of HIV replication (NL-RLuc virus, luciferase readout in MT-2 cells). The format is cell-based. As to conditions: 5 days of incubation, 10% FBS. The text has this:
Inhibition of HIV Replication:
A recombinant NL-RLuc proviral clone was constructed in which a section of the nef gene from NL4-3 was replaced with the Renilla Luciferase gene. This virus is fully infectious and can undergo multiple cycles of replication in cell culture. In addition, the luciferous reporter provides a simple and easy method for quantitating the extent of virus growth and consequently, the antiviral activity of test compounds. The plasmid pNLRLuc contains the proviral NL-Rluc DNA cloned into pUC18 at the PvuII site. The NL-RLuc virus was prepared by transfection of 293T cells with the plasmid pNLRLuc. Transfections were performed using the LipofectAMINE PLUS kit from Invitrogen (Carlsbad, Calif.) according to the manufacturer and the virus generated was titered in MT-2 cells. For susceptibility analyses, the titrated virus was used to infect MT-2 cells in the presence of compound, and after 5 days of incubation, cells were processed and quantitated for virus growth by the amount of expressed luciferase. Assay media was RPMI 1640 supplemented with 10% heat inactivated fetal bovine serum (FBS), 100 units/ml penicillin G/100 units/ml streptomycin, 10 mM HEPES buffer pH 7.55 and 2 mM L-glutamine. The results from at least 2 experiments were used to calculate the EC50 values. Luciferase was quantitated using the Dual Luciferase kit from Promega (Madison, Wis.). Susceptibility of viruses to compounds was determined by incubation in the presence of serial dilutions of the compound. The 50% effective concentration (EC50) was calculated by using the exponential form of the median effect equation where (Fa)=1/[1+(ED50/drug conc.)^m] (Johnson V A, Byington R T. Infectivity Assay. In Techniques in HIV Research. ed. Aldovini A, Walker B D. 71-76. New York: Stockton Press. 1990).

For the compound `Cc1nc(C)c([C@H](OC(C)(C)C)C(=O)O)c2c1-c1ccc(cc1)OC(c1ccc(Cl)cc1)CCCCOC1(C)CCN2CC1` (stereo partly shown), the ring closure, yield of all isomers in series [1] (from C=CCOC1(C)CCN(c2c(-c3ccc(OC(CC=C)c4ccc(Cl)cc4)cc3)c(C)nc(C)c2[C@H](OC(C)(C)C)C(=O)OCC)CC1, 6.25 mM, 70.0 °C, 0.5 h) was 59.1%. `Cc1nc(C)c([C@H](OC(C)(C)C)C(=O)O)c2c1-c1ccc(cc1)OC(c1ccccc1)CCCCOC1(C)CCN2CC1` (stereo partly shown) gave a ring closure, yield of all isomers in series [1] (from C=CCOC1(C)CCN(c2c(-c3ccc(OC(CC=C)c4ccccc4)cc3)c(C)nc(C)c2[C@H](OC(C)(C)C)C(=O)OCC)CC1, 70.0 °C, 1.0 h) of 63.8%.

As usually defined, the EC50 is the concentration at which the effect is half-maximal. With `Cc1nc(C)c([C@H](OC(C)(C)C)C(=O)O)c2c1-c1ccc(cc1)OC(c1ccccc1)CCCCOC1(C)CCN2CC1` (single isomer, unassigned) [Example 3], in series [2], the EC50 amounted to 854 nM. On to `Cc1nc(C)c([C@H](OC(C)(C)C)C(=O)O)c2c1-c1ccc(cc1)OC(c1ccccc1)CCCCOC1(C)CCN2CC1` (single isomer, unassigned) [Example 4], for which the EC50 in series [2] worked out at 349 nM.

For the compound `Cc1nc(C)c([C@H](OC(C)(C)C)C(=O)O)c2c1-c1ccc(cc1)OC(c1ccc(Cl)cc1)CCCCOC1(C)CCN2CC1` (single isomer, unassigned) [Example 5], the EC50 in series [2] (Renilla, NL43, 120 h) came out at 466 nM.

Consider `Cc1nc(C)c([C@H](OC(C)(C)C)C(=O)O)c2c1-c1ccc(cc1)OC(c1ccc(Cl)cc1)CCCCOC1(C)CCN2CC1` (single isomer, unassigned) [Example 6], for which, in series [2], the EC50 was 496 nM. Consider `Cc1cc(CN2CCCCCCOC3(C)CCN(CC3)c3c(c(C)nc(C)c3[C@H](OC(C)(C)C)C(=O)O)-c3ccc(cc3)C2)ccc1F` [Example 1, (2S)-2-(tert-Butoxy)-2-{13-[(4-fluoro-3-methylphenyl)methyl]-4,6,21-trimethyl-20-oxa-1,5,13-triazatetracyclo[19.2.2.2^8,11.0^2,7]heptacosa-2,4,6,8,10,26-hexaen-3-yl}acetic acid], for which the ring closure, yield of all isomers in series [1] (from C=CCCCN(Cc1ccc(-c2c(C)nc(C)c([C@H](OC(C)(C)C)C(=O)OCC)c2N2CCC(C)(OCC=C)CC2)cc1)Cc1ccc(F)c(C)c1, 70.0 °C, 0.83 h) was found to be 58.9%. Moreover, the EC50 in series [2] (Renilla, NL43, 120 h) came out at 87 nM.

On to `Cc1cc(CN2CCCCCOC3(C)CCN(CC3)c3c(c(C)nc(C)c3[C@H](OC(C)(C)C)C(=O)O)-c3ccc(cc3)C2)ccc1F` [Example 2, (2S)-2-(tert-Butoxy)-2-{13-[(4-fluoro-3-methylphenyl)methyl]-4,6,20-trimethyl-19-oxa-1,5,13-triazatetracyclo[18.2.2.2^8,11.0^2,7]hexacosa-2,4,6,8,10,25-hexaen-3-yl}acetic acid], for which, in series [1] (from C=CCOC1(C)CCN(c2c(-c3ccc(CN(CC/C=C\CC)Cc4ccc(F)c(C)c4)cc3)c(C)nc(C)c2[C@H](OC(C)(C)C)C(=O)OCC)CC1, 4.35 mM, 75.0 °C, 1.33 h), the ring closure, yield of all isomers came out at 17.2%. In series [2] (Renilla, NL43, 120 h), the EC50 was determined as 249 nM.
